Data as given in paper PMC4319760, “Rapid Identification of α-Glucosidase Inhibitors from Phlomis tuberosa by Sepbox Chromatography and Thin-Layer Chromatography Bioautography” (PLoS ONE, 2015).

system: α-D-glucosidase; experiment: TLC bioautographic assay for α-glucosidase inhibitors; assay type: biochemical; conditions: S1 Fig, subfractions 20 μL, ethyl acetate fraction 5 mg/mL, acarbose 1 mg/mL, 4 μL, qualitative
Text: In the present work, a high-performance thin-layer chromatographic system (CAMAG, Switzerland) equipped with an automatic TLC Sampler 4 and a Reprostar 3 with a 12-bit charge-coupled device camera for photo-documentation and controlled by WinCATS-4 software was used. […] After migration of the samples with appropriate solvents or no migration, the plates were inspected under ultraviolet light (366 nm) and then subjected to bioautographic assay as described below.
TLC bioautographic assay: TLC bioautographic assay was carried out as described previously in terms of reaction principle and response system but with slight modifications. First, the concentration of α-glucosidase was reduced from 10 U/mL to 2.5 U/mL. Second, the plate was dipped into the reaction solutions (including the enzyme solution, the substrate solution, and the coloration solution), instead of being sprayed with them. Third, the conditions for enzyme incubation were changed from room temperature for 60 min to 37°C for 30 min. Briefly, α-D-glucosidase (750 U) was dissolved in 75 mL of buffer solution (10.25 g of sodium acetate in 250 mL with addition of 0.1 M acetic acid to pH 7.5). The stock solution was kept at -20°C. A stock solution of 25 mL was diluted with the same buffer solution to 100 mL as the enzyme solution, and a substrate solution of 1 mg/mL 2-naphthyl-α-D-glucopyranoside in ethanol was prepared. […]

Compound | α-glucosidase inhibitory activity in bioautographic chromatogram (white spots), screening
C[C@H]1O[C@H](O[C@H]2[C@H](O)[C@@H](O)[C@@H](O[C@H]3[C@H](O)[C@@H](O)C(O)O[C@@H]3CO)O[C@@H]2CO)[C@H](O)[C@@H](O)[C@@H]1N[C@H]1C=C(CO)[C@@H](O)[C@H](O)[C@H]1O (some centres unmarked) [Acarbose, acarbose] | produced white spots

biological target: α-Glucosidase; experiment: α-Glucosidase inhibitory activity assay (4-nitrophenyl α-glucopyranoside substrate, absorbance at 405 nm); assay type: biochemical, Saccharomyces cerevisiae; conditions: 0.26 U/mL enzyme, pH 6.8, 37°C; mean ± SEM, triplicate
Description: After incubation at 37°C for 10 min, 100 μL of the substrate, 4-nitrophenyl α-glucopyranoside (5 mM, in potassium phosphate buffer) was added to the mixture. The enzymatic reaction was allowed to proceed at 37°C for 20 min and stopped by addition of 100 μL of 0.2 M NaCO3. 4-Nitrophenol absorptions were subsequently measured at 405 nm using a spectrophotometer. […] The IC50 value was defined as the concentration of α-glucosidase inhibitor required to inhibit 50% of α-glucosidase activity under the assay conditions. Experiments were performed in triplicate, and all results are expressed as mean ± SEM.

Compound | IC50 [mM]
CC1=C(CCc2ccoc2)C2(C)CCCC(C)(C(=O)O)C2CC1 (centres unmarked) [Compound 5, phlomisoic acid] | 0.482 ± 0.019
CC1(C(=O)O)CCCC2(C)c3cc4c(c(O)c3CCC12)COC4=O (centres unmarked) [Compound 2, 14-hydroxyabieta-8,11,13-triene-17-oic-12-carboxy-13-(1-hydroxy-1-methylethyl)-lactone] | 0.624 ± 0.026
CC1(C(=O)O)CCCC2(C)c3c(C=O)c4c(c(O)c3CCC12)COC4=O (centres unmarked) [Compound 1, 14-hydroxyabieta-8,11,13-triene-11-carbaldehyde-18-oic-12-carboxy-13-(1-hydroxy-1-methylethyl)-lactone] | 0.379 ± 0.016
CCCCC/C=C/c1c(O)cc(CC=C(C)C)c(O)c1C=O [Compound 18, tetrahydroauroglaucin] | 0.283 ± 0.013
CC1=C(CCc2ccoc2)C2(C)CCCC(C)(C)C2CC1 (centres unmarked) [Compound 6, 15,16-eposy-8,13(16),14-labdatrien] | 0.21 ± 0.01
CC1OC(Oc2c(-c3ccc(O)c(O)c3)oc3cc(O)cc(O)c3c2=O)C(O)C(O)C1O (centres unmarked) [Compound 12, quercetin-3-rhamnoside] | 0.562 ± 0.021

More lines, now with the values ahead:

IC50 [mM] | Compound
0.229 ± 0.017 | CCCCCCCc1c(O)cc(CC=C(C)C)c(O)c1C=O [Compound 17, flavoglaucin]
0.255 ± 0.013 | CCC/C=C/C=C/c1c(O)cc(CC=C(C)C)c(O)c1C=O [Compound 19, dihydroauroglaucin]
0.518 ± 0.017 | C[C@@H]1O[C@@H](O[C@@H]2[C@@H](O)[C@H](OCCc3ccc(O)c(O)c3)O[C@H](CO)[C@H]2OC(=O)/C=C/c2ccc(O)c(O)c2)[C@H](O)[C@H](O)[C@H]1O [Compound 7, acteoside]
0.067 ± 0.003 | CC1=C(CCc2ccoc2)C2(C)CCCC(C)(CO)C2CC1 (centres unmarked) [Compound 4, 15,16-eposy-8,13(16),14-labdatrien-19-ol]
1.2 ± 0.032 | C[C@@H]1O[C@@H](O[C@@H]2[C@@H](O)[C@H](OCCc3ccc(O)c(O)c3)O[C@H](COC(=O)/C=C/c3ccc(O)c(O)c3)[C@H]2O)[C@H](O)[C@H](O)[C@H]1O [Compound 8, isoacteoside]
0.371 ± 0.015 | CCCCCc1cc2c(C=O)c(O)c(CC=C(C)C)cc2o1 [Compound 20, 2-(2′,3-epoxy-1′-heptenyl)-6-hydroxy-5-(3″-methyl-2″-butenyl) benzaldehyde]
0.428 ± 0.018 | O=c1cc(-c2ccc(O)c(O)c2)oc2cc(O)cc(O)c12 [Compound 11, luteolin]

system: not given; experiment: not given; set-up: method as in PMID 23850835, PMID 18460146; conditions: previous toxicity studies; ref [23]–[25]; cited from earlier work

Compound | toxicity
C[C@@H]1O[C@@H](O[C@@H]2[C@@H](O)[C@H](OCCc3ccc(O)c(O)c3)O[C@H](CO)[C@H]2OC(=O)/C=C/c2ccc(O)c(O)c2)[C@H](O)[C@H](O)[C@H]1O [Compound 7, acteoside] | nontoxic
CC1OC(Oc2c(-c3ccc(O)c(O)c3)oc3cc(O)cc(O)c3c2=O)C(O)C(O)C1O (centres unmarked) [Compound 12, quercetin-3-rhamnoside] | nontoxic
COc1ccc(-c2cc(=O)c3c(O)cc(OC4OC(COC5OC(C)C(O)C(O)C5O)C(O)C(O)C4O)cc3o2)cc1 (centres unmarked) [Compound 10, acacetin-7-rutinoside] | nontoxic
